Several values for one entry are separate records, joined by “and”; a condition that tells them apart may be missing. Equal values may be shown once. Entries after “also recorded” stand apart in the source; their conditions may differ.
Tests used:
trained men = details: acute 12 mg capsaicin; squat exercise; cited from earlier work
[1] = high-dose oral encapsulated capsaicin, 25.8 mg; cited from earlier work
[2] = 1.2 mg purified capsaicin in gummy format; isokinetic knee extension; cited from earlier work
resistance trained men [3] = tested on: resistance trained men; set-up: species or system human; details: in vivo
resistance trained men [4] = tested on: resistance trained men; set-up: species or system human; details: in vivo, po
[5] = tested on: healthy men with resistance training experience; set-up: species or system human; details: in vivo
resistance trained men [6] = tested on: resistance trained men; set-up: species or system human; details: in vivo
[7] = tested on: healthy men with resistance training experience; set-up: species or system human; details: in vivo; remark: listed apart in the source
resistance trained men [8] = tested on: resistance trained men; set-up: species or system human; details: in vivo; remark: listed apart in the source
[9] = tested on: healthy men with resistance training experience; set-up: species or system human; details: in vivo; remark: listed apart in the source
resistance trained men [10] = tested on: resistance trained men; set-up: species or system human; details: in vivo; remark: listed apart in the source
[11] = tested on: healthy men with resistance training experience; set-up: species or system human; details: in vivo; remark: listed apart in the source

COc1cc(CNC(=O)CCCC/C=C/C(C)C)ccc1O [capsaicin, 8-methyl-N-vanillyl-trans-6-nonenamide]
number of repetitions until failure (trained men): increased significantly | rated perceived exertion overall body (RPE-OB) (trained men): reduced | total weight lifted (trained men): increased significantly | tolerability after oral supplementation [1]: intestinal discomfort | summed torque or fatigue index [2]: did not reach significant differences

phenylcapsaicyn
PRS, one-way repeated measures ANOVA between conditions (resistance trained men [3]): no differences between conditions | RPE-AM (local RPE in quadriceps), Bonferroni post-hoc comparison (resistance trained men [3]): significant differences | RPE-OB, Bonferroni post-hoc analyses between conditions (resistance trained men [3]): no significant differences | perceived exertion for the active muscle, RPE-AM (resistance trained men [3]): reduced perceived exertion for the active muscle | Lactate (% change) (resistance trained men [4]): 663.97 ± 352.36% and 653.16 ± 307.31% | MIF [5]: 1,175.92 ± 370.86 N and 1,182.71 ± 429.84 N and 1,063.035 ± 265.86 N and 1,091.67 ± 331.61 N and 1,084.25 ± 375.82 N and 1,131.50 ± 420.02 N | RFD0-50 [5]: 2,765.42 ± 1,725.44 N · s^1 and 2,544.07 ± 1,150.29 N · s^1 and 2,335.85 ± 1,408.53 N · s^1 and 2,375.33 ± 1,172.75 N · s^1 and 2,006.35 ± 773.62 N · s^1 and 2,190.07 ± 1,249.61 N · s^1 | RFD0-100 [5]: 2,921.42 ± 1,353.33 N · s^1 and 2,585.57 ± 1,998.95 N · s^1 and 2,320.43 ± 1,229.46 N · s^1 and 1,968.46 ± 1,373.43 N · s^1 and 2,129.25 ± 942.03 N · s^1 and 2,377.32 ± 1,196.68 N · s^1 | RFD0-150 [5]: 2,958.42 ± 1,280.93 N · s^1 and 2,635.67 ± 1,075.21 N · s^1 and 2,388.16 ± 1,184.60 N · s^1 and 2,129.54 ± 1,279.24 N · s^1 and 2,260.47 ± 1,032.89 N · s^1 and 2,450.52 ± 1,275.39 N · s^1 | RFD0-200 [5]: 2,697.29 ± 1,219.14 N · s^1 and 2,456.98 ± 1,052.11 N · s^1 and 2,178.30 ± 1,101.08 N · s^1 and 1,973.26 ± 1,214.84 N · s^1 and 2,067.32 ± 978.09 N · s^1 and 2,361.75 ± 1,214.58 N · s^1 | RFD0-400 [5]: 1,764.86 ± 898.55 N · s^1 and 1,784.80 ± 809.39 N · s^1 and 1,489.55 ± 733.99 N · s^1 and 1,521.34 ± 853.94 N · s^1 and 1,610.34 ± 773.99 N · s^1 and 1,664.43 ± 912.04 N · s^1 | isometric mechanical outcomes (MIF, RFD), two-way repeated measures ANOVAs [5]: no significant differences for any outcome | 60% fastest velocity, post-hoc Bonferroni comparison (resistance trained men [6]): significant differences between LD and PLA | 60% fastest-V (resistance trained men [6]): 0.97 ± 0.07 m · s^−1 and 0.96 ± 0.07 m · s^−1 | Fastest-V (resistance trained men [6]): 0.87 ± 0.03 m · s^−1 and 0.80 ± 0.06 m · s^−1 | Mean-Vt (resistance trained men [6]): 0.61 ± 0.07 m · s^−1 and 0.64 ± 0.07 m · s^−1 | Repetitions performed in the protocol (resistance trained men [6]): 24 ± 0.00 | Slowest-Vt (resistance trained men [6]): 0.45 ± 0.09 m · s^−1 and 0.49 ± 0.09 m · s^−1 | Weight (resistance trained men [6]): 87.69 ± 15.87 kg and 87.57 ± 14.69 kg | maximal velocity loss, post-hoc Bonferroni comparison (resistance trained men [6]): significant differences between HD and LD | mean velocity, post-hoc Bonferroni comparison (resistance trained men [6]): almost was achieved between HD and PLA | CMJ height post values, post-hoc Wilcoxon comparison [7]: significant differences | countermovement jump (CMJ) post and post 24 stages [7]: exhibited higher values | percentage of change in CMJ from pre to post values, post-hoc analyses [7]: did not reach any significant difference | percentage of change for urea values, post-hoc Wilcoxon comparison (resistance trained men [8]): significant higher percentage of change for LID compared to PLA | Urea (resistance trained men [8]; po): 40.77 ± 14.17 mg/dL and 37.48 ± 18.18 mg/dL and 29.77 ± 10.67 mg/dL and 30.31 ± 10.41 mg/dL | 60% load MDF VLA [9]: 94.20 ± 12.57% and 92.43 ± 15.57% and 87.66 ± 11.86% and 87.61 ± 11.16% and 89.62 ± 12.28% and 94.85 ± 19.89% | 60% load MDF VM [9]: 93.24 ± 12.84% and 87.62 ± 9.55% and 88.27 ± 13.74% and 87.29 ± 15.23% and 88.62 ± 16.06% and 84.97 ± 10.64% | 60% load RMS VLA [9]: 131.16 ± 36.34% and 144.45 ± 50.27% and 119.38 ± 47.67% and 103.95 ± 49.44% and 149.81 ± 47.00% and 133.16 ± 33.21% | 60% load RMS VLA, post-hoc Bonferroni comparison [9]: significant differences between PLA and LID | 60% load RMS VM [9]: 131.17 ± 29.13% and 120.88 ± 31.08% and 117.18 ± 19.75% and 112.41 ± 42.15% and 133.87 ± 43.81% and 138.30 ± 47.06% | Isometric MDF VLA [9]: 98.12 ± 9.79% and 99.07 ± 13.42% and 97.78 ± 9.79% and 100.39 ± 12.86% | Isometric MDF VM [9]: 93.75 ± 11.10% and 91.04 ± 14.79% and 97.28 ± 13.72% and 101.88 ± 18.22% | Isometric RMS VLA [9]: 99.88 ± 41.48% and 99.21 ± 50.39% and 126.91 ± 33.50% and 100.25 ± 25.60% | Isometric RMS VM [9]: 120.01 ± 58.48% and 118.65 ± 41.54% and 113.38 ± 24.62% and 102.79 ± 32.43% | Training MDF VLA [9]: 89.90 ± 10.21% and 90.47 ± 12.71% and 88.36 ± 11.03% and 89.99 ± 12.70% and 86.91 ± 9.27% and 89.91 ± 11.39% | Training MDF VM [9]: 85.63 ± 11.87% and 91.01 ± 15.42% and 84.07 ± 11.93% and 90.42 ± 18.35% and 83.74 ± 9.68% and 90.58 ± 15.25% | Training RMS VLA [9]: 123.84 ± 34.86% and 121.24 ± 36.40% and 146.42 ± 47.13% and 119.29 ± 38.40% and 135.14 ± 53.99% and 107.20 ± 42.77% | Training RMS VM [9]: 128.39 ± 50.89% and 111.81 ± 31.90% and 132.39 ± 40.98% and 109.58 ± 36.84% and 138.04 ± 55.37% and 107.44 ± 35.96% | training RMS VM, post-hoc Bonferroni comparison [9]: significant differences were found between HD and LID | AST post values, post-hoc Wilcoxon comparison (resistance trained men [10]): significant higher post levels of AST for PLA compared to HD | AST (resistance trained men [10]; po): 17.40 ± 11.25 U/L and 16.37 ± 11.29 U/L and 27.06 ± 14.66 U/L and 22.39 ± 10.86 U/L | AST (% change) (resistance trained men [10]; po): 119.62 ± 166.08% and 110.21 ± 167.16% | 60% load MFP best [11]: 950.82 ± 170.05 N and 945.34 ± 152.48 N and 907.38 ± 148.53 N and 903.85 ± 155.90 N and 930.60 ± 146.67 N and 936.27 ± 149.32 N | 60% load MPP best [11]: 822.00 ± 166.47 W and 810.71 ± 157.90 W and 688.32 ± 166.67 W and 698.67 ± 180.46 W and 796.70 ± 149.05 W and 798.56 ± 170.19 W | 60% load MPV best [11]: 0.93 ± 0.06 m/s and 0.80 ± 0.08 m/s and 0.81 ± 0.12 m/s and 0.93 ± 0.09 m/s and 0.91 ± 0.08 m/s | % VL (percentage of velocity loss during a set) [11]: 29.78 ± 10.90% and 26.62 ± 9.37% and 30.91 ± 10.24% and 26.65 ± 11.73% and 34.36 ± 12.15% | MFP mean [11]: 974.60 ± 162.62 N and 962.14 ± 148.59 N and 950.75 ± 161.58 N and 942.66 ± 141.94 N and 941.04 ± 156.67 N and 931.41 ± 141.91 N | MPP Best [11]: 770.42 ± 151.29 W and 744.70 ± 169.44 W and 694.45 ± 160.43 W and 701.32 ± 147.81 W and 681.99 ± 149.20 W and 683.86 ± 141.59 W | MPP mean [11]: 626.70 ± 147.11 W and 612.99 ± 145.84 W and 559.89 ± 128.61 W and 583.27 ± 128.14 W and 539.99 ± 126.34 W and 548.46 ± 135.58 W | MPV best [11]: 0.78 ± 0.05 m/s and 0.79 ± 0.06 m/s and 0.72 ± 0.07 m/s and 0.74 ± 0.07 m/s and 0.71 ± 0.07 m/s and 0.73 ± 0.05 m/s | MPV mean [11]: 0.66 ± 0.07 m/s and 0.68 ± 0.07 m/s and 0.60 ± 0.07 m/s and 0.64 ± 0.08 m/s and 0.58 ± 0.08 m/s and 0.61 ± 0.08 m/s | MPV of individual repetitions, post-hoc Bonferroni [11]: differences between HD and PLA in repetition 23; also recorded: HD and LD in repetitions 15 and 16 | Total volume load [11]: 2,014.57 ± 380.94 kg

From US20260248747A1, “PHYSICAL PERFORMANCE AID” (aXichem AB, priority 2023, published 2026)
